Each structure is given as a SMILES string. Read-outs that look alike come from different tables or passages of the source.

Experimental findings from patent publication US5041549A, “Heterocyclic spiro compounds and methods for preparing the same” (Yamanouchi Pharmaceutical Co., Ltd., priority 1987, dated 1991) are described below.

Data set [1] addresses T1, M1-receptor of rat cerebral cortex (Rattus norvegicus, UniProt P08482).
T1 construct: M1 -receptor of rat cerebral cortex; from tissue; host or cells: rat cerebral cortex (membranes of rat brain)
T1 sequence (P08482 1-460): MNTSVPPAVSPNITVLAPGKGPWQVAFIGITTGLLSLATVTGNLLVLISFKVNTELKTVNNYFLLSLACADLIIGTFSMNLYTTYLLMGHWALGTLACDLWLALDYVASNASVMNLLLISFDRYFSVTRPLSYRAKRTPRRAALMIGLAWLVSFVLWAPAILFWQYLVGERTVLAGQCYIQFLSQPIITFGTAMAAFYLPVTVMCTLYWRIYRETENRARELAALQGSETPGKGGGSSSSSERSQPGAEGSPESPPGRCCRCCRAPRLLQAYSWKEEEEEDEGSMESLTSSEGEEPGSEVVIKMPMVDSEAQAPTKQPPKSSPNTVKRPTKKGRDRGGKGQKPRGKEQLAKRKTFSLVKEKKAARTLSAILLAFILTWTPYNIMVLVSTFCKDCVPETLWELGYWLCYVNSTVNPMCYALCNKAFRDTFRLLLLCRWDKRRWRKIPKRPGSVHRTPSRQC
Briefly: Affinity for muscarinic receptor: [3H]pirenzepine binding to M1-receptor of rat cerebral cortex.

Data set [2] has as its target M2-receptor of rat cerebellum (Rattus norvegicus, UniProt P10980). The data set can be described thus: biochemical. It is filed as binding.
Another data set deals with tremor in mice. Briefly: Induction of tremor in mice. The following applies: sc.

Sequence of M2-receptor of rat cerebellum (P10980 whole entry): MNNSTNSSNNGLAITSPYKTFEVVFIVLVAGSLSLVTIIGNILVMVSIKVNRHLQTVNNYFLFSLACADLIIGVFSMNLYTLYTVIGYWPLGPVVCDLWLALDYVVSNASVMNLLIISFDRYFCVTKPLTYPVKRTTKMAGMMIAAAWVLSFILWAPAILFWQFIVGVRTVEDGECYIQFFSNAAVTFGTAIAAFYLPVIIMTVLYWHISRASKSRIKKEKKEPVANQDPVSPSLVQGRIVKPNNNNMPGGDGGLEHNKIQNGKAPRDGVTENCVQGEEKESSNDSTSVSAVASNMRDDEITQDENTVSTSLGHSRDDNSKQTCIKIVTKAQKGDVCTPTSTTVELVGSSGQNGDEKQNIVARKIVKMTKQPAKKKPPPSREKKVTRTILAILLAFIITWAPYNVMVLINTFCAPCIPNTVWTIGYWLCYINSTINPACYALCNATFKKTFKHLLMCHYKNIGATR

With `CCC1OC2(CCN(C)CC2)CC12OCCS2` (centres unmarked) [Example 29, 14-ethyl-10-methyl-1,13-dioxa-4-thia-10-azadispiro[4.1.5.2]tetradecane], the IC50 in data set [1] was found to be 49 nM; in data set [2], 640 nM. Moreover, the “Dose, the effect of the above 2) (minimum effective dose for causing tremor)” value (“Dose, the effect” below) in the data set with tremor in mice was greater than 30 mg/kg.

Regarding `O=C1CCCN1CC#CCN1CCCC1` [Oxotremorine, reference compound], the results for the IC50 in data set [1] and in data set [2] were 68 nM and 4.9 nM, respectively. Also, in the data set on tremor in mice, the “Dose, the effect” value is on record as 0.2 mg/kg.

Regarding `CCC1OC2(CCN(C)CC2)CC1=O` (centres unmarked) [Example 15, 2-ethyl-8-methyl-1-oxa-8-azaspiro[4.5]decan-3-one], the “Dose, the effect” value with tremor in mice is recorded as greater than 30 mg/kg.

Consider `C=C1CC2(CCN(C)CC2)OC1C` (centres unmarked) [Example 5, 2,8-dimethyl-3-methylene-1-oxa-8-azaspiro[4,5]decane], for which the IC50 in data set [1] came to 3320 nM; in data set [2], 25100 nM. Also, in the data set with tremor in mice, the “Dose, the effect” value is listed as greater than 30 mg/kg.

Take `COC(=O)C1=CCCN(C)C1` [Arecoline, reference compound]: the “Dose, the effect” value in the data set with tremor in mice was determined as 5 mg/kg.

`C=C1CC2(CCN(C)CC2)OC1CC` (centres unmarked) [Example 36, 2-Ethyl-8-methyl-3-methylene-1-oxa-8-azaspiro[4.5]decane]: the IC50 in data set [1] ([3H]pirenzepine, M1-receptor, rat cerebral cortex, read-out: Receptor-affinity IC50, Pirenzepine binding) amounted to 1260 nM; in data set [2], 8960 nM. In the data set with tremor in mice, the “Dose, the effect” value is on record as greater than 30 mg/kg.

In the case of `CC1SC2(CCN(C)CC2)CC12SCCS2` (centres unmarked) [Example 22, 10,14-Dimethyl-1,4,13-trithia-10-azadispiro[4.1.5.2]tetradecane], the IC50 was 39 nM in data set [1] and 710 nM in data set [2]. In the data set on tremor in mice, the “Dose, the effect” value is greater than 30 mg/kg.

With `CC1OC2(CN3CCC2CC3)CC12SCCS2` (single isomer, unassigned) [Example 33, 5'-Methyl-dispiro[1-azabicyclo[2.2.2]octane-3,2'-oxolane-4',2"-[1.3]dithiolane]], the half-inhibitory concentration (IC50) in data set [1] turned out to be 17 nM; in data set [2], 310 nM. In addition, the “Dose, the effect” value with tremor in mice was greater than 30 mg/kg.
